Values of other authors in patent US5859021A, “Antiviral combinations” (priority 1991, dated 1999).

Key:
[1] = versus (+) enantiomer
patients with AIDS = conditions: for toxicity in patients: AIDS patients, AZT: long-term therapy
[2] = test system: normal human bone marrow progenitor cells; conditions: combination with high-dose AZT, antiviral activity not affected

For Nc1ccn([C@@H]2CS[C@H](CO)O2)c(=O)n1 (racemic) [compound of formula (I), (±)-(cis)-4-Amino-1-(2-hydroxymethyl-1,3-oxathiolan-5-yl)-(1H)-pyrimidin-2-one], the “antiviral activity against HIV” value (HIV) is listed as “having antiviral activity”.
In the case of Nc1ccn([C@@H]2CS[C@H](CO)O2)c(=O)n1 [3TC], the “cytotoxicity compared with the (+) enantiomer” value [1] is listed as “considerably lower cytotoxicity than the (+) enantiomer”.
In the case of Cc1cn([C@H]2C[C@H](N=[N+]=[N-])[C@@H](CO)O2)c(=O)[nH]c1=O [AZT, 3'-azido-3'-deoxythymidine], the toxicity in patients (patients with AIDS) is given as “bone-marrow toxicity”, the “appearance of resistant HIV-1 variants” value (patients with AIDS; long-term AZT therapy) is given as “appearance of AZT-resistant variants of HIV-1” and the morbidity and mortality (patients with AIDS; patients with AIDS) is given as “reduces morbidity and mortality”. The “inhibition of HIV replication in vitro” value (HIV; in vitro) was “inhibit HIV replication in vitro” and the “antiviral activity in combination” value (HIV; in vitro, with recombinant soluble CD4, castanospermine and recombinant interferon alpha) was “synergistic antiviral activity”.
For Nc1ccn([C@H]2CC[C@@H](CO)O2)c(=O)n1 [ddC, 2',3'-dideoxycytidine], the “effect on bone marrow cytotoxicity of high-dose AZT” value [2] is given as “eliminates the bone marrow cytotoxicity of high-dose AZT”, the toxicity in patients (patients with AIDS) is given as “peripheral neurophathy” and the “antiviral activity of AZT in combination with ddC” value (HIV) is given as “without affecting its antiviral activity”. The “inhibition of HIV replication in vitro” value (HIV; in vitro) was “inhibit HIV replication in vitro”.
In the case of OC[C@@H]1CC[C@H](n2cnc3c(O)ncnc32)O1 [ddI, 2',3'-dideoxyinosine], the toxicity in patients (patients with AIDS) is given as “pancreatitis and peripheral neuropathy” and the “inhibition of HIV replication in vitro” value (HIV; in vitro) is given as “inhibit HIV replication in vitro”.
